Drawing on ChEMBL document CHEMBL5725428, “15-aryl prostaglandins as EP4 agonists, and methods of use thereof” (2017), this text covers Ki for one compound.

For assay [1], the target named is Prostaglandin E2 receptor EP4 subtype (Homo sapiens, UniProt P35408). Description: (§1) cAMP Assay: A 384-well drug plate was prepared to contain 6 test compounds, PGE2 and cAMP in 16 serial dilutions in triplicate, using a Biomek station. HEK-EBNA cells expressing a target PG receptor subtype (EP2 or EP4) were suspended in a stimulation buffer (HBSS, 0.1% BSA, 0.5 mM IBMX and 5 mM HEPES, pH 7.4) in a density of 10^4 cells/5 microliters. The reaction was initiated by mixing 5 microliters drug dilutions with 5 microliters of HEK-EBNA cells in a well, carried out for 30 min at room temperature, and followed by the addition of 5 microliters anti-cAMP acceptor beads in the control buffer with Tween-20 (25 mM NaCl, 0.03% Tween-20, 5 mM HEPES, pH 7.4). After 30 min in the dark at room temperature, the mixtures were incubated with 15 microliters biotinylated-cAMP/streptavidin donor beads in Lysis/Detection buffer (0.1% BSA, 0.3% Tween-20 and 5 mM HEPES, pH 7.4) for 45 min at room temperature. Fluorescence changes were read using a Fusion-alpha microplate reader. In kind it is cell-based.
Prostaglandin E2 receptor EP4 subtype, sequence (P35408 whole entry): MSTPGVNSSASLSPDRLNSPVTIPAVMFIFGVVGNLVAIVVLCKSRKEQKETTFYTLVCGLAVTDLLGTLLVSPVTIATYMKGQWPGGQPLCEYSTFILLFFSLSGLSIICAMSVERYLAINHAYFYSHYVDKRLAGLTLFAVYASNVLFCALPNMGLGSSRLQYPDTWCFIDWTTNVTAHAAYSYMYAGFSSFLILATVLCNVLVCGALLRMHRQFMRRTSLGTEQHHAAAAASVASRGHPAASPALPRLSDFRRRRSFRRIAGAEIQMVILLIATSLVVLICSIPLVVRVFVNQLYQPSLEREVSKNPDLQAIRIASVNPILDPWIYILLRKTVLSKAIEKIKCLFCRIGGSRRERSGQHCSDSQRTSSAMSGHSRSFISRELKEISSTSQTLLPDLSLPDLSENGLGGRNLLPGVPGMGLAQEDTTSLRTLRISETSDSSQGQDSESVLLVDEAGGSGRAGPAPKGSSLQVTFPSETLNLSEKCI

Assay [2] deals with Prostaglandin E2 receptor EP2 subtype (Homo sapiens, UniProt P43116). The assay is described as §1. The format is cell-based.
Prostaglandin E2 receptor EP2 subtype, sequence (P43116 whole entry): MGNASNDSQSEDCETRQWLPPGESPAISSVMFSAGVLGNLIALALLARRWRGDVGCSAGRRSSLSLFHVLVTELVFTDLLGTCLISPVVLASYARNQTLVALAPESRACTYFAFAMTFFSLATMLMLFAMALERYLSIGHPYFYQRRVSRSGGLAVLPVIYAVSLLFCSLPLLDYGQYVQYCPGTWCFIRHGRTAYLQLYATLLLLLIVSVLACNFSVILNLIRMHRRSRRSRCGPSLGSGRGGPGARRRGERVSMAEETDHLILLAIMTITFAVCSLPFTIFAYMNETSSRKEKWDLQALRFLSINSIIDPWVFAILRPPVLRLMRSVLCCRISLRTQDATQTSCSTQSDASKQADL

The term Ki denotes the equilibrium dissociation constant of an inhibitor or competing ligand from its target. Regarding `Cc1cc(Cl)ccc1-c1cc(C(O)/C=C/[C@H]2CCC(=O)N2CCCc2ccc(C(=O)O)cc2)ccc1F` (single isomer, unassigned), the results for the Ki in assay [1] and in assay [2] were 1.08 µM and 7.49 µM, respectively.
